# According to patent US5736352A, “Method and apparatus for determination of the activity of cholesterol oxidase and method and apparatus for evaluation of the toxicity of chemical substances” (priority 1995, dated 1998):
# Read-outs that look alike come from different tables or passages of the source.
# Test system: cholesterol oxidase
# Format: biochemical
# Settings: for effect of the chemical substance on the activity of the cholesterol oxidase (toxicity), curve compared with curve 22: 1 mU/ml cholesterol oxidase, pH 7.45
# [1] = 10 micro-M substance, film 70 mol % L-α-dimyristylphosphatizircoline / 30 mol % cholesterol
# Experimental: Any chemical substrance to be evaluated on the toxicity is previously dissolved or dispersed in the cholesterol oxidase solution 12. A monomolecule film is formed on a surface of the cholesterol oxidase solution 12 by use of a monomolecule film development solution including any phospholipid and any sterol. The surface pressure of the monomolecule film is measured to find a rate in the increase of the surface pressure of the monomolecule film. […] The reduction in the activity of the cholesterol oxidase results in a reduction in the increasing rate of the surface pressure of the monomolecule film. […] This means that the toxicitic chemical substance would be present in the cholesterol oxidase solution.
# As a cholesterol oxidase solution 12, there was used a buffer solution including N-2-hydroxyethylpiperzane-N'-2-ethane sulfuric acid, where the ion strength is 0.1 and pH value is 7.45 as well as 1 mU/ml of the cholesterol oxidase is dissolved in the buffer solution. […] As a monomolecule film development solution 13, there was used a monomolecule film development solution comprising 70 mol % of L-α-dimyristylphosphatizircoline and 30 mol % of cholesterol.
# The increasing rate of the surface pressure of the monomolecule film depends upon file cholesterol oxidase activity. As described above, the activity of the cholesterol oxidase depends upon the rate of increase in the surface pressure of the monomolecule film.
SMILES,"effect of the chemical substance on the activity of the cholesterol oxidase (toxicity), curve compared with curve 22 [1]",further results
[Ca+2].[Cl-].[Cl-] [calcium chloride],no toxicity,
CC(=O)[O-].CC(=O)[O-].[Pb+2] [lead acetate],reduces the activity of the cholesterol oxidase,"Linear Differential Coefficient (rate of increase in the surface pressure of the monomolecule film) (Cholesterol Oxidase 1 mU/ml, Lead Acetate 10 μ Mol, film 70 mol % L-α-dimyristylphosphatizircoline / 30 mol % cholesterol, five minutes after film was prepared, curve 23 (curve 22 without substance: 5.5 × 10^-2)): 4.2 × 10^-2 mN/mmin."
[Cl][Hg][Cl] [mercury chloride],,"effect of the chemical substance on the activity of the cholesterol oxidase (toxicity), curve compared with curve 22 (10 micro-M substance, film 70 mol % L-α-dipalmytylphosphatizircoline / 30 mol % dihydrocholesterol): reduces the activity of the cholesterol oxidase"
CCCCCCCCCCCCOS(=O)(=O)[O-].[Na+] [sodium dodecylsulfate],,"effect of the chemical substance on the activity of the cholesterol oxidase (toxicity), curve compared with curve 22 (1 micro-M substance, film 70 mol % L-α-di-palmytylphosphatizir-ethanol / 30 mol % pregnenolone): reduces the activity of the cholesterol oxidase"
[Cl-].[Cl-].[Zn+2] [zinc chloride],reduces the activity of the cholesterol oxidase,
